# Assay results published in PubChem BioAssay (NCI).
#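 Interpolation was linear, between the two tested concentrations surrounding the appropriate level; five concentrations were tested over 48 hours in 96-well plates. GI50: concentration for 50% inhibition of growth. TGI is the concentration that stops growth completely.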
# Key:
# Experiment in all cases: NCI anticancer screen, dose series, 48 h
# NCI-H522 lung = tested on: NCI-H522 lung
# A549 NSCLC = tested on: A549 NSCLC
# MDA-MB-468 breast = tested on: MDA-MB-468 breast
# HOP-92 NSCLC = tested on: HOP-92 NSCLC
# SN12C renal = tested on: SN12C renal
# OVCAR-8 ovarian = tested on: OVCAR-8 ovarian
# SF-295 CNS = tested on: SF-295 CNS
# SW-620 colon = tested on: SW-620 colon
# M14 melanoma = tested on: M14 melanoma
# SK-OV-3 ovarian = tested on: SK-OV-3 ovarian
# COLO 205 colon = tested on: COLO 205 colon
# MCF7 breast = tested on: MCF7 breast
# MDA-MB-435 = tested on: MDA-MB-435
# HL-60(TB) leukemia = tested on: HL-60(TB) leukemia
# NCI/ADR-RES ovarian = tested on: NCI/ADR-RES ovarian
# NCI-H460 lung = tested on: NCI-H460 lung
# HT29 colon = tested on: HT29 colon
# HS 578T breast = tested on: HS 578T breast
# HCT-15 colon = tested on: HCT-15 colon
# OVCAR-3 ovarian = tested on: OVCAR-3 ovarian
# NCI-H23 lung = tested on: NCI-H23 lung
# UO-31 renal = tested on: UO-31 renal
# HCT-116 colon = tested on: HCT-116 colon
# SNB-19 CNS = tested on: SNB-19 CNS
# UACC-62 melanoma = tested on: UACC-62 melanoma
# UACC-257 melanoma = tested on: UACC-257 melanoma
# A498 renal = tested on: A498 renal
# BT-549 breast = tested on: BT-549 breast
# CAKI-1 renal = tested on: CAKI-1 renal
# NCI-H226 lung = tested on: NCI-H226 lung
smiles,measurement,setting,value
CCOP(=O)(OCC)O[C@H]1CC[C@]2(C)[C@H]3CC[C@@H]4[C@@H]([C@](C)(O)CCC=C(C)C)CC[C@@]4(C)[C@]3(C)CC[C@H]2C1(C)C,GI50,NCI-H522 lung,11.5 µM
same,TGI,NCI-H522 lung,25.9 µM
same,GI50,A549 NSCLC,12.6 µM
same,TGI,A549 NSCLC,30.3 µM
same,GI50,MDA-MB-468 breast,5.1 µM
same,TGI,MDA-MB-468 breast,18.2 µM
same,GI50,HOP-92 NSCLC,10.3 µM
same,TGI,HOP-92 NSCLC,23.4 µM
same,GI50,SN12C renal,11.8 µM
same,TGI,SN12C renal,24 µM
same,GI50,OVCAR-8 ovarian,13.2 µM
same,TGI,OVCAR-8 ovarian,30.8 µM
same,GI50,SF-295 CNS,12.4 µM
same,TGI,SF-295 CNS,24.8 µM
same,GI50,SW-620 colon,13.2 µM
same,TGI,SW-620 colon,27.4 µM
same,GI50,M14 melanoma,14.9 µM
same,TGI,M14 melanoma,35 µM
same,GI50,SK-OV-3 ovarian,12.3 µM
same,TGI,SK-OV-3 ovarian,27 µM
same,GI50,COLO 205 colon,12.4 µM
same,TGI,COLO 205 colon,29.5 µM
same,GI50,MCF7 breast,7.26 µM
same,TGI,MCF7 breast,20.5 µM
same,GI50,MDA-MB-435,12.8 µM
same,TGI,MDA-MB-435,27.1 µM
same,GI50,HL-60(TB) leukemia,8.49 µM
same,TGI,HL-60(TB) leukemia,33.2 µM
same,GI50,NCI/ADR-RES ovarian,14.7 µM
same,TGI,NCI/ADR-RES ovarian,28.5 µM
same,GI50,NCI-H460 lung,12.9 µM
same,TGI,NCI-H460 lung,27.6 µM
same,GI50,HT29 colon,7.35 µM
same,TGI,HT29 colon,23.2 µM
same,GI50,HS 578T breast,11.5 µM
same,TGI,HS 578T breast,31.8 µM
same,GI50,HCT-15 colon,10.7 µM
same,TGI,HCT-15 colon,22.4 µM
same,GI50,OVCAR-3 ovarian,13.5 µM
same,TGI,OVCAR-3 ovarian,27.2 µM
same,GI50,NCI-H23 lung,10.1 µM
same,TGI,NCI-H23 lung,21.7 µM
same,GI50,UO-31 renal,10.1 µM
same,TGI,UO-31 renal,21.6 µM
same,GI50,HCT-116 colon,5.91 µM
same,TGI,HCT-116 colon,21.7 µM
same,GI50,SNB-19 CNS,13.4 µM
same,TGI,SNB-19 CNS,26.1 µM
same,GI50,UACC-62 melanoma,10.7 µM
same,TGI,UACC-62 melanoma,22.6 µM
same,GI50,UACC-257 melanoma,12.4 µM
same,TGI,UACC-257 melanoma,27.3 µM
same,GI50,A498 renal,12.4 µM
same,TGI,A498 renal,25.1 µM
same,GI50,BT-549 breast,14.9 µM
same,TGI,BT-549 breast,29.1 µM
same,GI50,CAKI-1 renal,10.3 µM
same,TGI,CAKI-1 renal,22.8 µM
same,GI50,NCI-H226 lung,11.8 µM
